# Results published in patent US7091038B2, “Ecdysone receptor-based inducible gene expression system” (RheoGene, Inc., priority 2000, dated 2006).
# What was measured:
# [1] = molecular target: DmVgRXR + MmRXR (Drosophila melanogaster, UniProt P34021, E282G/G283S/G286V); test: Transactivation of reporter gene through switch 1.8 in CV1 cells; type: cell-based, Drosophila melanogaster; Mus musculus; parameters: host or cells: CHO, NIH3T3, 293 or CV1 cells; details: switch 1.8, pIND(SP1)LacZ
# Excerpt: This system was purchased from Invitrogen Corp., Carlsbad, California. It comprises a Drosophila melanogaster EcR (“DmEcR”) with a modified DNABD fused to VP16AD and placed under the control of a CMV promoter (SEQ ID NO: 68). Full length MmRXR (SEQ ID NO: 62) was placed under the control of the RSV promoter (SEQ ID NO: 69). The reporter, pIND(SP1)LacZ, contains five copies of a modified ecdysone response element (“EcRE”, E/GRE), three copies of an SPI enhancer, and a minimal heat shock promoter, all of which were placed upstream to the LacZ reporter gene.
# (§1) The cells were harvested and reporter activity was assayed.
# (§2) The cells were plated when they reached 50% confluency.
# (§3) The same procedures described for NIH3T3 cells were followed for CV1 cells
# (§4) Cells were harvested 24–48 hr after adding ligands. […] Twenty μl of lysate was assayed.
# [2] = system: VP16CfEcR; test: Transactivation of reporter gene through switch 1.7 in CV1 cells; type: cell-based, Choristoneura fumiferana; details: switch 1.7, pEcRELuc
# Experimental: Six ecdysone response elements (“EcRE”; SEQ ID NO: 55) from the hsp27 gene were placed upstream of the promoter and a luciferase gene (SEQ ID NO: 66). This switch most probably uses endogenous RXR.
# as §1, §2, §3, §4
# [3] = system: GAL4USP + VP16CfEcR; test: Transactivation of reporter gene through switch 1.5 in CV1 cells; type: cell-based, Choristoneura fumiferana; details: switch 1.5, pGAL4RELuc
# Experimental: (§5) This construct was prepared in the same way as switch 1.3 except MmRXRDEF was replaced with CfUSPDEF (SEQ ID NO: 67).
# as §1, §2, §3, §4
# [4] = system: GAL4USP + VP16CfEcR; test: Transactivation of reporter gene through switch 1.5 in 293 cells; type: cell-based, Choristoneura fumiferana; details: switch 1.5, pGAL4RELuc
# Experimental: as §5, §1
# (§6) The same procedures described for CHO were followed for 293 cells except that the cells were plated in biocoated plates to avoid clumping.
# as §4
# [5] = system: GAL4EcR + VP16USP; test: Transactivation of reporter gene through switch 1.2 in 293 cells; type: cell-based, Choristoneura fumiferana; details: switch 1.2, pGAL4RELuc
# Experimental: This construct was prepared in the same way as in switch 1.1 above except MmRXRDEF was replaced with the D, E and F domains from spruce budworm USP (“CfUSPDEF”; SEQ ID NO: 67). The constructs used in this example are similar to those disclosed in U.S. Pat. No. 5,880,333 except that Choristoneura fumiferana USP rather than Drosophila melanogaster USP was utilized.
# as §1, §6, §4
# [6] = system: GAL4CfEcRVP16; test: Transactivation of reporter gene through switch 1.6 in 3T3 cells; type: cell-based, Choristoneura fumiferana; details: switch 1.6, pGAL4RELuc
# Experimental: (§7) This construct was prepared so that both the GAL4 DNABD and the VP16AD were placed on the same molecule. GAL4DNABD (SEQ ID NO: 43) and VP16AD (SEQ ID NO: 49) were fused to CfEcRDEF (SEQ ID NO: 3) at N-and C-termini respectively.
# as §1, §2, §4
# [7] = system: CfVgRXR + MmRXR; test: Transactivation of reporter gene through switch 1.9 in CHO cells; type: cell-based, Choristoneura fumiferana; Mus musculus; details: switch 1.9, pIND(SP1)LacZ
# Experimental: (§8) This example was prepared in the same way as switch 1.8 except DmEcR was replaced with a truncated CfEcR comprising a partial A/B domain and the complete CDEF domains [SEQ ID NO: 70 (polynucleotide) and SEQ ID NO: 71 (polypeptide)].
# as §1, §4
# [8] = system: GAL4CfEcRVP16; test: Transactivation of reporter gene through switch 1.6 in CV1 cells; type: cell-based, Choristoneura fumiferana; details: switch 1.6, pGAL4RELuc
# Experimental: as §7, §1, §2, §3, §4
# [9] = system: CfVgRXR; test: Transactivation of reporter gene through switch 1.10 in 3T3 cells; type: cell-based, Choristoneura fumiferana; details: switch 1.10, pIND(SP1)LacZ
# Experimental: This example was prepared in the same way as switch 1.9 except MmRXR (SEQ ID NO: 62) was deleted.
# as §1, §2, §4
# [10] = system: GAL4RXR + VP16CfEcR; test: Transactivation of reporter gene through switch 1.3 in 293 cells; type: cell-based, Mus musculus; Choristoneura fumiferana; details: switch 1.3, pGAL4RELuc
# Experimental: as §1, §6, §4
# [11] = system: GAL4USP + VP16CfEcR; test: Transactivation of reporter gene through switch 1.5 in 3T3 cells; type: cell-based, Choristoneura fumiferana; details: switch 1.5, pGAL4RELuc
# Experimental: as §5, §1, §2, §4
# [12] = system: CfVgRXR + MmRXR; test: Transactivation of reporter gene through switch 1.9 in 293 cells; type: cell-based, Choristoneura fumiferana; Mus musculus; details: switch 1.9, pIND(SP1)LacZ
# Experimental: as §8, §1, §6, §4
# [13] = system: CfVgRXR + MmRXR; test: Transactivation of reporter gene through switch 1.9 in 3T3 cells; type: cell-based, Choristoneura fumiferana; Mus musculus; details: switch 1.9, pIND(SP1)LacZ
# Experimental: as §8, §1, §2, §4
# Sequence of DmVgRXR + MmRXR (P28700 whole entry, the tested form may be a part): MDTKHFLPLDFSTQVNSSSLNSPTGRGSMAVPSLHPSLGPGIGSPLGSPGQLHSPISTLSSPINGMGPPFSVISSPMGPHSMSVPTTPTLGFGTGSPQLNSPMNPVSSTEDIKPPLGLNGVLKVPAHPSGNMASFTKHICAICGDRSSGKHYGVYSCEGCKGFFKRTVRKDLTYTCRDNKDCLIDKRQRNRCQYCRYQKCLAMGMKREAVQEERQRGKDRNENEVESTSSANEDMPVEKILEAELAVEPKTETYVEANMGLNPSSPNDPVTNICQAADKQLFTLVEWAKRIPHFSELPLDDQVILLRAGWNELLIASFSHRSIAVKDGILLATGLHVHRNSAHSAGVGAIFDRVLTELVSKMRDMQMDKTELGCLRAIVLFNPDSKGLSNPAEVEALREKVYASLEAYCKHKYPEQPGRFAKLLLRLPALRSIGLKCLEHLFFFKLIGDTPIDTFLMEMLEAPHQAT
# Sequence of DmVgRXR + MmRXR (P34021 whole entry E282G/G283S/G286V, the tested form may be a part): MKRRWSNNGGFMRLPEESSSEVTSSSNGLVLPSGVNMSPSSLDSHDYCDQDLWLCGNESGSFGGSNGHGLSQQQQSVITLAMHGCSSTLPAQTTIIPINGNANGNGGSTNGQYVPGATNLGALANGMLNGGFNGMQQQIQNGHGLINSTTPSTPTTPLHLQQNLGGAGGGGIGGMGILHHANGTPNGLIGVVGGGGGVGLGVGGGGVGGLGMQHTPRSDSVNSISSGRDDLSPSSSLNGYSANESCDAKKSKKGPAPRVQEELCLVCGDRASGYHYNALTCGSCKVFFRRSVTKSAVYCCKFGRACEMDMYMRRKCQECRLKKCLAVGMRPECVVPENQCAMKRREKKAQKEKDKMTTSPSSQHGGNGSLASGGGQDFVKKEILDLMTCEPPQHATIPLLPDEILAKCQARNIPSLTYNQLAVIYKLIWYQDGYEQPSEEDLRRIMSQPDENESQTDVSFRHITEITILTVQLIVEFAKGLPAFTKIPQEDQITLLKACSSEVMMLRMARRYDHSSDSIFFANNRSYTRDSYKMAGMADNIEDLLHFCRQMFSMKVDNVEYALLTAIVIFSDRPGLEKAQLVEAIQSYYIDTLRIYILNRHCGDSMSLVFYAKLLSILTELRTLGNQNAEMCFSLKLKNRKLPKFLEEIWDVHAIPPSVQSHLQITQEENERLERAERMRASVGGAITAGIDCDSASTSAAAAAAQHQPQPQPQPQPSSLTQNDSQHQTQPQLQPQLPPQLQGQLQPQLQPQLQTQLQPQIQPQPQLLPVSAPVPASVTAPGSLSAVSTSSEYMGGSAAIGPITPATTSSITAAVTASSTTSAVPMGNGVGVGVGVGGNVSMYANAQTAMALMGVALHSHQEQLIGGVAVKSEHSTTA
smiles,measurement,setting,value
"CCc1c(OC)cccc1C(=O)NN(C(=O)c1cc(C)cc(C)c1)C(C)(C)C [N-(2-ethyl-3-methoxybenzoyl)-N′-(3,5-dimethylbenzoyl)-N′-t-butylhydrazine]","Mean Fold Activation Through N-(2-ethyl-3-methoxybenzoyl)-N′-(3,5-dimethylbenzoyl)-N′-t-butylhydrazine",[1],12 fold
same,"Mean Fold Activation Through N-(2-ethyl-3-methoxybenzoyl)-N′-(3,5-dimethylbenzoyl)-N′-t-butylhydrazine",[2],1 fold
same,"Mean Fold Activation Through N-(2-ethyl-3-methoxybenzoyl)-N′-(3,5-dimethylbenzoyl)-N′-t-butylhydrazine",[3],3 fold
same,"Mean Fold Activation Through N-(2-ethyl-3-methoxybenzoyl)-N′-(3,5-dimethylbenzoyl)-N′-t-butylhydrazine",[4],2 fold
same,"Mean Fold Activation Through N-(2-ethyl-3-methoxybenzoyl)-N′-(3,5-dimethylbenzoyl)-N′-t-butylhydrazine",[5],2 fold
same,"Mean Fold Activation Through N-(2-ethyl-3-methoxybenzoyl)-N′-(3,5-dimethylbenzoyl)-N′-t-butylhydrazine",[6],7 fold
same,"Mean Fold Activation with 50 μM N-(2-ethyl-3-methoxybenzoyl)-N′-(3,5-dimethylbenzoyl)-N′-t-butylhydrazine",[7],27 fold
same,"Mean Fold Activation Through N-(2-ethyl-3-methoxybenzoyl)-N′-(3,5-dimethylbenzoyl)-N′-t-butylhydrazine",[8],6 fold
same,"Mean Fold Activation Through N-(2-ethyl-3-methoxybenzoyl)-N′-(3,5-dimethylbenzoyl)-N′-t-butylhydrazine",[9],2 fold
same,"Mean Fold Activation Through N-(2-ethyl-3-methoxybenzoyl)-N′-(3,5-dimethylbenzoyl)-N′-t-butylhydrazine",[10],17 fold
same,"Mean Fold Activation Through N-(2-ethyl-3-methoxybenzoyl)-N′-(3,5-dimethylbenzoyl)-N′-t-butylhydrazine",[11],3 fold
same,"Mean Fold Activation Through N-(2-ethyl-3-methoxybenzoyl)-N′-(3,5-dimethylbenzoyl)-N′-t-butylhydrazine",[12],12 fold
same,"Mean Fold Activation Through N-(2-ethyl-3-methoxybenzoyl)-N′-(3,5-dimethylbenzoyl)-N′-t-butylhydrazine",[13],19 fold
